Measurements taken from patent publication US6642256B2, “Piperidine derivatives as subtype selective N-Methyl-D-Aspartate antagonists” (Warner-Lambert Company LLC, priority 2000, dated 2003).

Test system: Male Wistar albino rats
Test: Formalin footpad test (FT)
Type: in vivo, rat
Conditions: Table 1; PO; statistically significant decrease in late-phase pain behaviour versus vehicle
Experimental: a. The Formalin Footpad Test (FT):
The FT model was used to test invention compounds for pain alleviating properties. The model produces a biphasic response in a test animal that results from a change in pain intensity over time. The FT model utilizes an injection of dilute formalin into the hindpaw of a rodent, which produces high intensity acute pain behaviors which are measured for the first 10 minutes post formalin injection (early phase responding). High intensity acute pain behaviors include rapid licking or biting of the injected hindpaw. The second phase is a prolonged period of lower intensity pain behaviors (late phase responding) which are measured from 11 to 45 minutes post-formalin injection.
Male Wistar albino rats (Harlan Sprague-Dawley Labs), weighing approximately 100 g at the time of testing, were used. Animals were group-housed and acclimated to the housing facility for 1 week prior to testing. Animals were maintained on a 12-hour/12-hour light/dark cycle and fed block rodent chow. From 4 to 8 animals were randomly assigned to either a vehicle-only dose group or a vehicle-plus invention compound treatment group on the day of testing.
The testing apparatus was a 16″×8″ box divided into two 8″×8″ testing chambers. Each testing chamber comprised a floor and 3 walls made of clear plastic mirrors, and a fourth wall which was clear plastic that allowed observation of animal behavior. The top of each chamber was covered with a metal screen during testing to prevent animals from climbing out of the chamber. Two animals were tested simultaneously in the adjoining boxes, but animals were unable to observe one another.
Animals were weighed and placed into holding cages (2 animals per cage) in the testing room prior to dosing. Following approximately 30 minutes of acclimation to the testing room, each pair of animals was administered orally (PO) by gavage a mixture of invention compound plus vehicle or vehicle alone. The treated animals were then placed in individual test chambers and allowed to acclimate to the chambers for at least 20 minutes. Then 50 μL of a 2.5% solution of formalin in vehicle was injected subcutaneously (SC) in the plantar surface of the left hindpaw from 30 to 120 minutes after administration of the invention compound. A session timer was started following the formalin injection, and the amount of time the animal spent licking or biting the injected paw was clocked with a hand-held stopwatch. The cumulative time spent engaging in a pain response was manually recorded at 5-minute intervals for 45 minutes post formalin injection. Early phase responding included Minutes 0 to 10, and late phase responding included Minutes 11 to 45. At the end of the testing period, animals were sacrificed using carbon dioxide. […]

Row | SMILES | FT (mg/kg), active dose [mg/kg]
1 | O=c1[nH]c2ccc(C3=NOC(CN4CCC(Cc5ccccc5)CC4)C3)cc2o1 (racemic) [Example 1, 6-[5-(4-Benzylpiperidin-1-ylmethyl)-4,5-dihydroisoxazol-3-yl]-3H-benzoxazol-2-one] | >10
2 | O=c1[nH]c2ccc(C3=NOC(CN4CCC(Cc5ccc(F)cc5)CC4)C3)cc2o1 (single isomer, unassigned; (-)) [Example 4b, (−)-6-{5-[4-(4-Fluorobenzyl)piperidin-1-ylmethyl]4,5-dihydroisoxazol-3-yl}-3H-benzoxazol-2-one] | >30
